Measured values: patent US7230011B2, “Benzenesulfonic acid indol-5-yl esters as antagonists of the 5ht6 receptor” (Eli Lilly and Company, priority 2002, dated 2007)
Read-outs that look alike come from different tables or passages of the source.

How the values were obtained:
5-HT6 receptor = 5-HT6 receptor (Homo sapiens, UniProt P50406); conditions: cited from earlier work; for Ki: 5-HT6 receptor; for affinity for the 5-HT6 receptor: in words
5-HT2A receptor = 5-HT2A receptor (Homo sapiens, UniProt P28223); conditions: 5-HT6 versus 5-HT2A; cited from earlier work
[1] = cited from earlier work; for pharmacokinetics: in words
Morris water maze = conditions: in vivo; cited from earlier work
[2] = test system: glutamate release in the prefrontal cortex; conditions: 10 mg/kg, sc; cited from earlier work
yawning behavior = conditions: in vivo; cited from earlier work
aged rats = conditions: cited from earlier work
stretching behavior = conditions: cited from earlier work; for block of stretching behavior induced by Ro 04-6790: methyl-scopolamine at doses known to be peripherally selective
Male Sprague-Dawley rats = conditions: s.c., six-hour delay
object recognition test = conditions: in vivo; cited from earlier work
[3] = test system: rats with unilateral nigrostriatal 6-OH-DA lesions; conditions: cited from earlier work

5-HT6 receptor, sequence (P50406 whole entry): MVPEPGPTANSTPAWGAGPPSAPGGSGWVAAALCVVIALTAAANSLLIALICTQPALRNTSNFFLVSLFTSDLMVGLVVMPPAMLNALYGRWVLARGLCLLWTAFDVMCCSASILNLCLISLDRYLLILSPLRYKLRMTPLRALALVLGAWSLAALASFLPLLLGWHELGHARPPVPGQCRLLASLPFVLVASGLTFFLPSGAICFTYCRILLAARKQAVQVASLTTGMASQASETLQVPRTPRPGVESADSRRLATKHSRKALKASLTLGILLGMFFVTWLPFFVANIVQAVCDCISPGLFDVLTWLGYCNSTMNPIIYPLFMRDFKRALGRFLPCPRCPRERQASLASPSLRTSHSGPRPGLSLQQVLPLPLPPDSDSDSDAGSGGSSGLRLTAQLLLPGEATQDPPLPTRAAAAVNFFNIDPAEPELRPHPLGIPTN
5-HT2A receptor, sequence (P28223 whole entry): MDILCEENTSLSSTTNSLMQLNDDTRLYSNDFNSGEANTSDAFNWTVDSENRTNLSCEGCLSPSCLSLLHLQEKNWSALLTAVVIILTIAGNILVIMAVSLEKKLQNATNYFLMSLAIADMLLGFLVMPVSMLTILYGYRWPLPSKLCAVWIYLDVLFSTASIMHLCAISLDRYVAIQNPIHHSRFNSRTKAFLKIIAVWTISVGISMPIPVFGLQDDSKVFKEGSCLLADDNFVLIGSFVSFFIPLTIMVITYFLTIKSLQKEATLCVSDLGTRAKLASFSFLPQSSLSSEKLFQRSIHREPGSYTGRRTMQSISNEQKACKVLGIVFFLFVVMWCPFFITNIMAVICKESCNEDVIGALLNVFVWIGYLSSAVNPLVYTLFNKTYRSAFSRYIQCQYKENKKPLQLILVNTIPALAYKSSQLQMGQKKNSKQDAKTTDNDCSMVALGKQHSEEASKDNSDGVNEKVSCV

Molecule: Cc1cc(OS(=O)(=O)c2c(Cl)cccc2Cl)cc2c(C3CCN(C)CC3)c[nH]c12 [Example 63, 2,6-Dichlorobenzenesulfonic Acid 7-methyl-3-(1-methylpiperidin-4-yl)-1H-indol-5-yl Ester]
- melting point: 179 °C

Molecule: CCc1[nH]c2ccc(OC)cc2c1CCN(C)C [N,N-dimethyl-2-ethyl-5-methoxytryptamine]
- Ki (5-HT6 receptor): 81 nM
- selectivity versus the 5-HT2A receptor (5-HT2A receptor): 3.5 fold

Molecule: CNc1cc(NS(=O)(=O)c2ccc(N)cc2)cc(NC)n1 [Ro 63-0563]
- Ki (5-HT6 receptor; read-out: Ki): 12 nM
- pharmacokinetics [1]: poor pharmacokinetics

Molecule: COc1ccc(NS(=O)(=O)c2sc3ccc(Cl)cc3c2C)cc1N1CCNCC1 [SB-271,046]
- performance in the Morris water maze (Morris water maze): improved performance
- glutamate release in the prefrontal cortex [2]: increases glutamate release
- bioavailable ([1]; in vivo): 80%
- yawning behavior induced by physostigmine (yawning behavior): potentiated the yawning behavior
- spatial alternation operant behavior test (aged rats): improvements

Molecule: CN1[C@@H]2C[C@@H](OC(=O)[C@H](CO)c3ccccc3)C[C@H]1[C@@H]1O[C@@H]12 [Scopolamine, scopolamine]
- block of stretching behavior induced by Ro 04-6790 (stretching behavior): blocked

Molecule: Nc1c2c(nc3ccccc13)CCCC2 [Tacrine, tacrine]
- retention (Male Sprague-Dawley rats; 3 mg/kg): not
- retention (Male Sprague-Dawley rats; 10 mg/kg): significantly improved retention

Molecule: CN1[C@@H]2CC[C@H]1C[C@@H](OC(=O)C(CO)c1ccccc1)C2 (some centres unmarked) [atropine]
- block of yawning and stretching behavior induced by antisense oligonucleotides targeting the 5-HT6 receptor (stretching behavior; antisense icv to rats): blocked
- block of stretching behavior induced by Ro 04-6790 (stretching behavior): blocked

Molecule: O=C(CCCN1CCC(O)(c2ccc(Cl)cc2)CC1)c1ccc(F)cc1 [haloperidol]
- affinity for the 5-HT6 receptor (5-HT6 receptor): do not have significant affinity

Molecule: Cc1nc2n(c(=O)c1CCN1CCC(c3noc4cc(F)ccc34)CC1)CCCC2 [risperidone]
- affinity for the 5-HT6 receptor (5-HT6 receptor): do not have significant affinity

Molecule: Ro 04-6790
- Ki (5-HT6 receptor; read-out: Ki): 50 nM
- stretching behavior (stretching behavior; rat, in vivo): induced stretching behavior in a dose-dependent manner
- scopolamine induced performance deficits in the object recognition test (object recognition test): reversed scopolamine induced performance deficits
- pharmacokinetics [1]: poor pharmacokinetics
- rotational behavior induced by L-DOPA or amphetamine ([3]; rat, in vivo): did not block
- rotation behavior induced by scopolamine ([3]; rats, unilateral nigrostriatal 6-OH-DA lesions): block the rotation behavior
